Reference: PubChem BioAssay AID2206 (Vanderbilt High Throughput Screening Facility, 2009)
Calls of active or inactive are those of the source.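 How the source made its calls: active means average EC50 below 10 µM; inactive means average EC50 of 10 µM or more.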

molecular target: Muscarinic acetylcholine receptor M1 (Rattus norvegicus) (UniProt P08482); assay: rat M1 positive allosteric modulators, SAR follow-up, selectivity assay for M5 allosteric modulator project, cell-based (AID 2206); conditions: CHO-K1 rat M1, Fluo-4 calcium, ACh EC20 potentiation
Sequence (P08482 whole entry, looked up): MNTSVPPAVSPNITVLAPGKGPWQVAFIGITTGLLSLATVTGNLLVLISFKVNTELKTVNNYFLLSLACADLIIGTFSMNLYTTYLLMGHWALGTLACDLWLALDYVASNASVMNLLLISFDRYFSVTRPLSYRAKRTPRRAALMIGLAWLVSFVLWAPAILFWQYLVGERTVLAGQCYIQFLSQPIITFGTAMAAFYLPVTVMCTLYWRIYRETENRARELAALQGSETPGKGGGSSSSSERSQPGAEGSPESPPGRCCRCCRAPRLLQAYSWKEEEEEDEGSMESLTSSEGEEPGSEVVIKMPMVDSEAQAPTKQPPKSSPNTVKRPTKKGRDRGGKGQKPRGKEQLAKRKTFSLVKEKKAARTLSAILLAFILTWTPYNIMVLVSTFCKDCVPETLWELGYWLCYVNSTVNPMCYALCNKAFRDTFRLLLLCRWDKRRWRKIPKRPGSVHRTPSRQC

Row | EC50 | SMILES
1 | inactive | COc1ccc(CN2C(=O)C(=O)c3ccccc32)cc1
2 | > 30 µM (inactive) | O=C1C(=O)N(Cc2ccccc2Cl)c2ccc(OC(F)(F)F)cc21
3 | 5.38 µM | COc1ccc(CN2C(=O)C(=O)c3cccc(Cl)c32)cc1
4 | > 30 µM (inactive) | COc1ccc(CN2C(=O)C(=O)c3cc(OC(F)(F)F)ccc32)cc1
5 | > 10 µM (inactive) | Cc1ccccc1CN1C(=O)C(=O)c2cc(OC(F)(F)F)ccc21
6 | > 30 µM (inactive) | COc1cccc(CN2C(=O)C(=O)c3c(Cl)ccc(Cl)c32)c1
7 | > 30 µM (inactive) | O=C1C(=O)N(Cc2ccccc2C(F)(F)F)c2c(F)cccc21
8 | 6.21 µM | O=C1C(=O)N(Cc2ccccc2C(F)(F)F)c2ccc(F)cc21
9 | > 10 µM (inactive) | O=C1C(=O)N(Cc2ccc(Br)cc2F)c2ccc(OC(F)(F)F)cc21
10 | > 30 µM (inactive) | O=C1C(=O)N(Cc2ccc(OC(F)(F)F)cc2)c2ccc(OC(F)(F)F)cc21
11 | > 30 µM (inactive) | COc1cccc(CN2C(=O)C(=O)c3cc(OC(F)(F)F)ccc32)c1
12 | 3.99 µM | O=C1C(=O)N(Cc2ccc(Br)cc2)c2c(F)cccc21
13 | 5.41 µM | O=C1C(=O)N(Cc2ccc(C(F)(F)F)cc2)c2ccc(Cl)cc21
14 | 7.09 µM | O=C1C(=O)N(Cc2ccc(C(F)(F)F)cc2)c2ccc(OC(F)(F)F)cc21
15 | 5.18 µM | O=C1C(=O)N(Cc2ccc(C(F)(F)F)cc2)c2c(F)cccc21
